What all share (test): inhibition of tumour cell growth, NCI panel, 48 h
Assay [1] deals with NCI-H23 lung.
For assay [2], the system named is DMS 114 small cell lung.
Assay [3] has as its system RPMI-8226 leukemia.
For assay [4], the system named is A549 NSCLC.
In assay [5] the test system is RXF 393 renal.
Assay [6] concerns M19-MEL melanoma.
Assay [7] concerns OVCAR-8 ovarian.
Assay [8] relates to UO-31 renal.
Assay [9] deals with LXFL 529 NSCLC.
Assay [10] relates to DMS 273 small cell lung.
The subject of assay [11] is HOP-92 NSCLC.
Assay [12] concerns MDA-MB-231 breast.

The values below come from PubChem BioAssay (NCI).

The structures appear in SMILES notation. Values joined by “and” are separate entries in the source; they are usually repeats but may differ in a detail not shown here. Equal entries are not always repeated.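 Results reflect a 48-hour exposure of cells in 96-well plates to compound at five concentrations. GI50 = concentration required for 50% inhibition of growth. The concentration for full growth arrest is given as TGI.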

Turning to `CSc1snc2sc3c(Cl)nnnc3c12`, the TGI amounted to 36 µM in assay [1]; 29 µM in assay [2]; 56.2 µM in [3]; 33.9 µM in [4]; 25.1 µM in assay [5]; 24.1 µM in assay [6]. Also, the TGI is 21 µM in [7], 25.6 µM in assay [8], 4.85 µM in assay [9] and 23.9 µM in assay [10].

For the compound `CCc1cc(CCC(=O)Nc2ccccc2[N+](=O)[O-])[nH]c(=S)n1`, the TGI in assay [1], in assay [2], in assay [4], in assay [5], in [6] and in [7] was more than 100 µM in each case. Also, the TGI in [8], in assay [9] and in assay [11] was more than 100 µM throughout.

As for `Cc1cccc2c1CCC21OC(=O)c2c1ccc1ccccc21` (centres undefined), the TGI in assay [1] was 98.7 µM; in [2] it was 72.4 µM; in assay [4], more than 100 µM; in assay [5] it was more than 100 µM; in assay [6], more than 100 µM; in assay [7] it was more than 100 µM. In addition, the TGI in assay [8] was more than 100 µM; in assay [9] it was more than 100 µM; in assay [10], 91.5 µM.

As for `O=C1C2C(C(=O)N1c1ccccc1)C1([N+](=O)[O-])C=C3c4ccccc4N(C(=O)c4ccccc4)C32C2C(=O)N(c3ccccc3)C(=O)C21` (centres undefined), the TGI in assay [1], in assay [2], in assay [4], in assay [6], in assay [7] and in [8] was more than 100 µM throughout. The TGI in [9], in assay [11] and in assay [10] was more than 100 µM throughout.

Regarding `CC(C)(C)c1ccc(OCCOCCOc2ccc(C(C)(C)C)cc2S(=O)(=O)Nc2ccc([N+](=O)[O-])cc2)c(S(=O)(=O)Nc2ccc([N+](=O)[O-])cc2)c1`, the TGI in assay [1], in assay [2], in assay [4], in assay [5], in [6] and in assay [7] was more than 100 µM throughout. The TGI in [8] is more than 100 µM; in [11] it was 72.3 µM; in assay [10] it was more than 100 µM.

With `O=C1c2ccccc2-c2c1c1c(O)cccc1n2Cc1ccccn1`, the GI50 in assay [1] is 44.1 µM; in [3] it was 19.9 µM; in assay [4], 45.3 µM; in assay [5], 45.7 µM; in assay [12] it was 28.5 µM; in assay [7] it was 74 µM. In addition, the GI50 in assay [8] was more than 100 µM; in assay [11], 17.7 µM. For the same compound, the TGI in [1], in assay [3], in assay [4], in [5], in assay [12] and in assay [7] was more than 100 µM each time. Further, the TGI in [8] and in [11] was more than 100 µM each time.

As for `CN(Cc1cc(Br)cc(Br)c1O)Cc1c(O)ccc2ccccc12`, the TGI is 50.6 µM in [1]; more than 100 µM in assay [3]; 40.9 µM in [4]; 38.8 µM in assay [5]; 35.6 µM in assay [12]; 60 µM in [7]. Moreover, the figures for the TGI in [8] and in assay [11] were 30.9 µM and 39.4 µM, respectively.

In the case of `COc1ccc2c(c1)C(=O)/C(=C/c1ccc([N+](=O)[O-])o1)O2`, the GI50 is 1.8 µM in assay [1]; 2.01 µM in assay [3]; 2.68 µM in assay [4]; 1.39 µM in [5]; 1.41 µM in [12]; 1.21 µM in [7]. Besides, the GI50 in [8] is 0.796 µM; in [11] it was 0.793 µM. For the same compound, the TGI was 4 µM in assay [1]; 6.2 µM in [3]; more than 22.8 µM in assay [4]; 3.05 µM in assay [5]; 3.17 µM in assay [12]; 5.4 µM in [7]. Further, the TGI in [8] is 2.46 µM; in assay [11], 2.79 µM.

Consider `N#Cc1cc(S(=O)(=O)Nc2nnc(-c3ccccc3)c(-c3ccccc3)n2)c(SCc2ccccc2)cc1Cl`, for which the GI50 in assay [1] was more than 100 µM; in [3] it was 16.4 µM; in assay [4], 22.2 µM; in [5] it was 6.31 µM; in [12], 23.3 µM; in assay [7], 28.5 µM. For the same compound, the GI50 was 26.8 µM in assay [8] and 18.4 µM in [11]. Moreover, the TGI in assay [1] was more than 100 µM; in assay [3] it was 51.9 µM; in assay [4], 40.7 µM; in assay [5], 22.7 µM; in assay [12], 83.8 µM; in assay [7], 56.7 µM. Also, the TGI in [8] was 71.3 µM; in assay [11] it was 58.7 µM.

For the compound `Cc1cn2c(/C=N/N=C(N)N)c(-c3ccccn3)nc2s1`, the GI50 in [1] is 6.65 µM; in [3] it was 7.53 µM; in assay [4] it was 21.1 µM; in assay [5], 5.9 µM; in [12], 17.2 µM; in [7], 13.9 µM. Also, the GI50 was 7.98 µM in [8] and 7.35 µM in assay [11]. Further, the TGI in assay [1] was 16.7 µM; in [3], more than 84.7 µM; in assay [4], more than 70.1 µM; in assay [5] it was 18.1 µM; in assay [12], 39.6 µM; in [7], more than 56.2 µM. Also, the TGI in [8] was more than 20.5 µM; in assay [11], 16.9 µM.

Take `C=C(CO)[C@@H]1CC[C@]2(COC3CCCCO3)CC[C@]3(C)[C@H](CC[C@@H]4[C@@]5(C)C=C(C=O)C(=O)C(C)(C)[C@@H]5CC[C@]43C)[C@@H]12` (some centres undefined): the GI50 is 0.311 µM in assay [1]; 0.244 µM in assay [3]; 0.495 µM in [4]; 0.172 µM in assay [5]; 0.214 µM in [12]; 0.356 µM in assay [7]. Further, the GI50 was 0.187 µM in assay [8] and 0.147 µM in assay [11]. Also, the TGI in [1] was found to be 1.02 µM; in [3], 0.777 µM; in assay [4] it was 1.87 µM; in [5] it was 0.334 µM; in [12] it was 0.565 µM; in assay [7] it was 1.44 µM. In addition, the TGI stood at 0.433 µM in assay [8] and 0.312 µM in assay [11].

Regarding `CN1CCN(c2ccc(NC(=O)c3cncnc3Nc3ccc(OCc4ccccn4)c(Cl)c3)cc2)CC1`, the GI50 in [1] was 5.07 µM; in assay [3], 1.33 µM; in assay [4] it was 2.22 µM; in assay [5] it was 1.93 µM; in assay [12], 2 µM; in assay [7], 5.4 µM. Moreover, the GI50 in assay [8] was 3.89 µM; in assay [11] it was 3.11 µM. For the same compound, the TGI in [1] was 11.5 µM; in [3], 6.7 µM; in assay [4] it was 7.71 µM; in [5] it was 6.71 µM; in assay [12] it was 6.56 µM; in assay [7] it was 15.3 µM. Further, the TGI in [8] came to 9.97 µM; in assay [11], 9.28 µM.

Consider `CCN(CC)C(=S)SCN1C(=O)c2ccccc2S1(=O)=O`, for which the GI50 in assay [1] was 45.5 µM; in assay [3], less than 0.01 µM; in assay [4] it was 41.2 µM; in assay [5] it was more than 51.3 µM; in [12], 50.9 µM; in assay [7], more than 57.9 µM. The GI50 in assay [8] was 53.9 µM; in assay [11] it was more than 100 µM. For the same compound, the TGI in assay [1] is more than 91.1 µM; in assay [4], more than 100 µM; in [5], more than 80.1 µM; in assay [12], more than 100 µM; in assay [7], more than 100 µM; in assay [8], more than 100 µM. For the same compound, the TGI in assay [11] was more than 100 µM.

With `COC(=O)c1cc2c3ccccc3[nH]c2c2sccc12`, the GI50 was 33.8 µM in [1]; 15.1 µM in [3]; 25.5 µM in assay [4]; 23.6 µM in assay [5]; 5.06 µM in assay [12]; 38.3 µM in [7]. The figures for the GI50 in assay [8] and in assay [11] were 7.59 µM and 17.2 µM, respectively. Besides, the TGI in assay [1] was more than 100 µM; in assay [3], more than 100 µM; in assay [4] it was more than 100 µM; in assay [5] it was 80.4 µM; in [12] it was 61.3 µM; in assay [7] it was more than 100 µM. The TGI in assay [8] is more than 100 µM; in assay [11], 99.7 µM.

Turning to `COc1ccc2c3c(c(C(=O)c4ccccc4)oc13)CCC2`, the TGI in assay [1] was 41.4 µM; in assay [2], more than 100 µM; in assay [3], more than 100 µM; in [4] it was more than 100 µM; in [5], 31.3 µM; in assay [6], more than 100 µM. In addition, the TGI in [7], in assay [9] and in [10] was more than 100 µM each time.

As to `CCOC(=O)c1cc(-c2ccccc2)[nH]c1N/N=C/c1ccc(Cl)cc1`, the GI50 is 79.1 µM in [1]; 29.8 µM in assay [3]; 81.5 µM in assay [4]; more than 100 µM in [5]; more than 100 µM in [12]; more than 100 µM in assay [7]. Moreover, the GI50 in [8] was 73.6 µM; in assay [11] it was 46.9 µM. The TGI in assay [1], in [3], in assay [4], in assay [5], in [12] and in assay [7] was more than 100 µM throughout. The TGI in [8] and in assay [11] was more than 100 µM throughout.

With `C/C(=N\NC(=S)SCc1ccccc1)c1ccccn1`, the TGI in [1] is 9.31 µM; in assay [3] it was 1.97 µM; in assay [4] it was 20.5 µM; in assay [5], 3.03 µM; in assay [12], 4.08 µM; in assay [7], 0.326 µM. Also, the TGI in assay [8] stood at 14.2 µM; in assay [11] it was 2.14 µM.

With `O=C(CCn1[nH]c(=O)c(Cl)c(Cl)c1=O)NNC(=O)C[n+]1ccccc1`, the TGI in [1], in assay [2], in assay [3], in [4], in [5] and in [6] was more than 100 µM throughout. In addition, the TGI in [7], in [8], in assay [9] and in assay [10] was more than 100 µM throughout.

Take `Cc1ccc(NS(=O)(=O)c2cccc(C#N)c2)c2[nH]cc(C#N)c12`: the GI50 is 27.5 µM and 27.7 µM in assay [1]; 18.1 µM and 10.5 µM in [3]; 17.9 µM and 12.7 µM in assay [4]; 17.6 µM and 1.99 µM in [5]; 13.6 µM and 22 µM in assay [12]; 19.1 µM and 15.8 µM in assay [7]. The GI50 in assay [8] was 14.7 µM and 9.17 µM; in [11] it was 7.78 µM and 12.8 µM. The TGI is 84.6 µM and > 100 µM in assay [1]; 76.6 µM and 52.2 µM in assay [3]; more than 100 µM in [4]; 74.3 µM and 68.1 µM in [5]; more than 85 µM in assay [12]; > 100 µM and 69.3 µM in assay [7]. In addition, the TGI is 63.8 µM and 56.3 µM in assay [8]; 38.1 µM and 48.2 µM in assay [11].

As to `CC(=[N-])N1CCC[C@@H](Nc2c3ccccc3nc3ccccc23)C1.[Cl][Pt].[NH-]CCC[NH-]`, the GI50 in [1] was 0.198 µM; in assay [3], 2.42 µM; in assay [4] it was 0.0325 µM; in assay [5], 1.25 µM; in assay [12] it was 2.1 µM; in assay [7] it was 1.04 µM. In addition, the GI50 in assay [8] is 1.78 µM; in assay [11], 2.21 µM. For the same compound, the TGI in [1] was 2.75 µM; in assay [3], more than 100 µM; in assay [4], more than 100 µM; in [5], 2.96 µM; in assay [12], 89.1 µM; in assay [7], more than 100 µM. In addition, the TGI is 9.21 µM in [8] and 8.36 µM in [11].

Take `CCOC(=O)c1cnc2c(ccc3ncccc32)c1NCCCN(CC)CC`: the TGI in assay [1], in assay [3], in assay [4], in assay [6], in assay [8] and in [9] was more than 100 µM in each case. For the same compound, the TGI in [11] and in [10] was more than 100 µM each time.
